# PubChem BioAssay AID1996
# Non-standard residues stand in square brackets, D forms with d. Residues, ends and D or L forms follow the SMILES beside them. ξ: configuration not given here. *: point of attachment. Cbz = O=C(OCc1ccccc1)*; ξV = CC(C)C(N)C(=O)O
# Conditions: buffer; pH 7.4; 200.0 µM
row,solubility kinetic [µg/mL],SMILES
1,1.1,CN(C)/C=N/c1ncc(C(=O)c2ccc(-c3ccccc3)cc2)s1
2,> 37.8,CCCCNC(=O)C(=O)NCCCn1ccnc1
3,> 49.2,O=C(COC(=O)C1CCC(=O)N1)Nc1ccccc1OC(F)F (centres undefined)
4,> 48.3,COCCCN(CC(=O)O)S(=O)(=O)c1cccc(Cl)c1
5,< 0.4,CC(C)CN1C(=O)c2ccc(NC(=O)Cc3ccccc3)cc2C1=O
6,4.3,COc1ccc(S(=O)(=O)N2CCCCC2)cc1NC(=O)CCNC(=O)c1ccc(Cl)cc1
7,14.6,Cc1nc(OCC(C)C)c2sc3nc4c(cc3c2n1)COC(C)(C)C4
8,< 0.3,Cc1nc2nc(SCC(=O)c3ccccc3)[nH]c2cc1Br
9,0.4,O=C(CN1c2cccc3cccc(c23)S1(=O)=O)Nc1ccccc1
10,> 43.9,c1ccc2nc(SCc3cn4ccccc4n3)cnc2c1
11,> 52.7,CN1C(=O)NC(c2ccc(O)cc2)C2=C1CN(c1ccc(O)cc1)C2=O (centres undefined)
12,33.5,O=C(CCCNC(=O)c1ccc(Cl)cc1)Nc1ccccc1F
13,34.2,O=[N+]([O-])c1ccccc1S(=O)(=O)N1CCSCC1
14,> 46.4,Cc1ccc(CC2CC(=O)N(c3nc(C)cc(C)n3)C2=O)cc1 (centres undefined)
15,1.8,O=C(Nc1ccc(OCc2ccccc2Cl)cc1)c1cccnc1
16,29.1,CSc1ncccc1C(=O)OCC(=O)NC(C)CCc1ccccc1 (centres undefined)

row,solubility kinetic [µg/mL],SMILES
1,32.8,Cc1ccc(NC(=O)C(C)SCc2ccccc2)cc1 (centres undefined)
2,> 39.8,COc1cccc(NC(=S)N2CCN(C)CC2)c1
3,5.8,O=C(CC1CCC1)Nc1cccc2c([N+](=O)[O-])cccc12
4,56.7,CNc1c(-n2cc(C(=O)OC)c(C(=O)OC)c2C(=O)OC)c(=O)n(C)c(=O)n1C
5,1.8,CC(=O)c1cccc(NC(=O)Nc2nc(C)cc(C)n2)c1
6,41.4,COc1cccc(NC(=O)CN(C)CC(=O)NC(C)c2ccccc2)c1 (centres undefined)
7,> 50,COc1cccc(NC(=O)CN2C(=O)NC(C)(CC(C)C)C2=O)c1 (centres undefined)
8,> 49.7,COc1ccc(NC2c3ccccc3C(=O)N2c2cccnc2)cc1 (centres undefined)
9,> 34.4,O=c1cc[nH]c2ccc(OC(F)(F)F)cc12
10,> 48.4,COC(=O)CNC(=O)C(NC(=O)OCc1ccccc1)C(C)C (centres undefined) (Cbz-[ξV]-Gly-OMe)
11,> 34.7,O=C(N/N=C/c1cccnc1)c1cccs1
12,36.9,CC1CCN(CC(=O)N2CCc3ccccc32)CC1
13,> 39.8,CC(C)CNC(=O)COc1ncnc2sccc12
14,26,CCc1ccc(NC(=O)COC(=O)CC2CCCC2)cc1
15,> 44.4,CC(C)NCC(O)COc1cccc2ccccc12.Cl (centres undefined)
16,1,Cc1ccccc1/C=C/C12NC(=O)CN1c1ccccc1C2(C)C (centres undefined)

# More lines, now with the values behind:
row,SMILES,solubility kinetic [µg/mL]
1,O=C(C(Cl)Cl)N1CCN(Cc2ccc3c(c2)OCO3)CC1,42.6
2,O=C(O)C1CCCN1C(=O)C12CC3CC(CC(C3)C1)C2 (centres undefined),> 41.6
3,CCCNC(=O)c1oc2ccc3c(c2c1C)C(O)CC(C)(C)O3 (centres undefined),> 47.6
4,O=C(Nc1cc(S(=O)(=O)N2CCOCC2)ccc1N1CCOCC1)c1ccc([N+](=O)[O-])s1,6.1
5,COc1ccccc1CNC(=O)Cc1c[nH]c2ccccc12,> 44.2
6,CC1(C)Cc2nc3[nH]c(=S)[nH]c(=O)c3cc2CO1,> 39.5
7,Cc1cc(=O)cc(C)n1-c1ccc(Cl)cc1,34.8
8,Cc1cc2c(cc1C)C(c1ccsc1)CC(=O)N2 (centres undefined),5.1
9,Cc1nc(SCC(=O)NCc2ccc3c(c2)OCO3)nc(C)c1C,> 51.8
10,COc1cccc(-c2nc(=S)c3c(o2)CCCC3)c1,12.1
11,NC(=O)NOCc1cccc(Cl)c1,> 30.1
12,CSc1nc(N2CCN(C)CC2)c2c(c1C#N)CC(C)(C)OC2,> 49.9
13,COc1ccc(NC(=O)C2CCCN(C(=O)Nc3ccc(F)cc3)C2)cc1 (centres undefined),12.4
14,CCc1ccc(C(=O)Nc2cccnc2Oc2ccc(Cl)cc2)cc1,1.5
15,COc1nc(OCC#N)nc(N2CCCCC2)n1,31.6
16,O=C(CS(=O)CC(=O)Nc1cccnc1)Nc1ccc(F)cc1 (centres undefined),> 50.3
17,COc1ccc(C2N(c3ccccc3)C(=O)C2(F)F)cc1OC (centres undefined),36.2
18,Cc1sc(NC(=O)CCC(=O)O)c(C#N)c1C,> 37.8
19,COC(=O)c1cccc(NC(=O)CSc2nnc(C)n2C)c1,> 48.1
20,CCOc1ccc(S(=O)(=O)NC2CCCC2)cc1C,> 42.5
21,CC1C/C(=N\NC(=O)c2cccnc2)CC(C)(C)C1 (centres undefined),> 38.9
22,CN(Cc1ccc(F)cc1)C(=O)COc1ccc2ccccc2c1,< 0.7
23,COC(=O)c1cn(C(=O)c2ccc(Cl)cc2)c2ccccc12,1.6
24,COCC(=O)Nc1ccc2c(c1)OCO2,27.7
25,CCCCNC(=O)CCc1nc2cccnc2n1Cc1ccccc1,> 50.5
26,O=C(CNC(=O)c1ccc2ccccc2c1)NCc1ccccc1F,7.8
27,CC(C)(C)C(=O)OCc1nc(-c2ccc3c(c2)OCCO3)cs1,< 0.7
